26 compounds from patent US11952330B2, “Antibiotic ammonium compounds and methods for the treatment of bacterial infections” (priority 2019, dated 2024) can be followed below.

In one assay the test system is S. aureus. The experiment in a line: MIC by broth dilution, S. aureus. In kind it is cell-based. Particulars: Staphylococcus aureus; Mueller-Hinton broth, overnight 37° C.; Table 1; read-out: MIC (μg/mL) S. aureus. Here is the method:
(§1) The antibacterial efficacy of the ammonium compounds was assessed. Minimum inhibitory concentrations (MICs) were determined by broth dilution method. Dilutions of each compound, ranging from 1 μg/mL to 256 μg/mL (final concentrations) were prepared in Mueller-Hinton broth. Compound dilutions were added to wells of a 96-well plate, with the concentration of the compound increasing 2-fold by row. Each well contained 5×10^5 CFU/ml of target bacterium in a total volume of 100 μl. Plates were incubated overnight at 37° C. The following day, plates were evaluated for a visual change in growth to determine the MIC. The concentration value corresponding to the first row that no longer had visible bacterial growth, as evaluated by turbidity in the wells, was recorded as the MIC. MIC values were representative of at least biological duplicates, each made up of technical triplicates. The antibacterial efficacy of ammonium compounds in the presence of human plasma was assessed. Minimum inhibitory concentrations (MICs) were determined by broth dilution method. Dilutions of each compound, ranging from 1 μg/mL to 256 μg/mL (final concentrations) were prepared in Mueller-Hinton broth. For the plasma containing samples, compound dilutions were made in Mueller-Hinton broth and supplemented with 5% (final %) human plasma (esterases). Compound dilutions were added to wells of a 96-well plate, with the concentration of the compound increasing 2-fold by row. Each well contained 5×10^5 CFU/mL of target bacterium in a total volume of 100 μL. Plates were incubated overnight at 37° C. The following day, plates were evaluated for a visual change in growth to determine the MIC. The concentration value corresponding to the first row that no longer had visible bacterial growth, as evaluated by turbidity in the wells, was recorded as the MIC. MIC values were representative of at least biological duplicates, each made up of technical triplicates.
(In general: In broth dilution the organism is exposed to a series of concentrations in liquid medium.)

For another assay, the system named is A. baumannii. The experiment in a line: MIC by broth dilution, A. baumannii. In kind it is cell-based. Particulars: Acinetobacter baumannii; Mueller-Hinton broth, overnight 37° C.; Table 1; read-out: MIC (μg/mL) A. baumannii. On the procedure: as §1

Each structure is given as a SMILES string.

As to `CCCCCCCCOc1ccccc1C(=O)Nc1ccc(C(=O)OCC[N+](CC)(CC)Cc2ccc([N+](=O)[O-])cc2)cc1.[Br-]` [Compound 39, N,N-Diethyl-N-(4-nitrobenzyl)-2-((4-(2-(octyloxy)benzamido)benzoyl)oxy)ethan-1-aminium bromide], the MIC with S. aureus was 3 to 30 µg/mL; in the assay on A. baumannii, greater than 30 µg/mL.

For the compound `CCCCCCCCOc1ccccc1C(=O)Nc1ccc(C(=O)OCC[N+](CC)(CC)Cc2cccc(C(F)(F)F)c2)cc1.[Br-]` [Compound 40, N,N-Diethyl-2-((4-(2-(octyloxy)benzamido)benzoyl)oxy)-N-(3-(trifluoromethyl)-benzyl)ethan-1-aminium bromide], the MIC with S. aureus was less than 3 µg/mL; with A. baumannii it was greater than 30 µg/mL.

Consider `CCCCCCCCOc1ccccc1C(=O)Nc1ccc(C(=O)OCC[N+](CC)(CC)Cc2ccc(C(F)(F)F)cc2)cc1.[Br-]` [Compound 41, N,N-Diethyl-2-((4-(2-(octyloxy)benzamido)benzoyl)oxy)-N-(4-(trifluoromethyl)-benzyl)ethan-1-aminium bromide], for which the MIC in the assay with S. aureus was less than 3 µg/mL; in the assay on A. baumannii, greater than 30 µg/mL.

For `CCCCCCCCOc1ccccc1C(=O)Nc1ccc(C(=O)OCC[N+](CC)(CC)Cc2cccc(F)c2)cc1.[Br-]` [Compound 42, N,N-Diethyl-N-(3-fluorobenzyl)-2-((4-(2-(octyloxy)benzamido)benzoyl)oxy)ethan-1-aminium bromide], the results for the MIC in the assay with S. aureus and in the assay on A. baumannii were less than 3 µg/mL and 3 to 30 µg/mL, respectively.

As for `CCCCCCCCOc1ccccc1C(=O)Nc1ccc(C(=O)OCC[N+](CC)(CC)Cc2cccc(F)c2F)cc1.[Br-]` [Compound 43, N,N-Diethyl-N-(2,3-difluorobenzyl)-2-((4-(2-(octyloxy)benzamido)benzoyl)oxy)-ethan-1-aminium bromide], the MIC was less than 3 µg/mL in the assay with S. aureus and 3 to 30 µg/mL with A. baumannii.

As for `CCCCCCCCOc1ccccc1C(=O)Nc1ccc(C(=O)OCC[N+](CC)(CC)CCCCc2ccccc2)cc1.[Br-]` [Compound 44, N,N-Diethyl-N-(2-((4-(2-(octyloxy)benzamido)benzoyl)oxy)ethyl)-4-phenylbutan-1-aminium bromide], the MIC with S. aureus was less than 3 µg/mL; in the assay with A. baumannii, 3 to 30 µg/mL.

`CCCCCCCCOc1ccccc1C(=O)Nc1ccc(C(=O)OCCC[N+](C)(CC)CC)cc1.[I-]` [Compound 45, N,N-Diethyl-N-methyl-3-((4-(2-(octyloxy)benzamido)benzoyl)oxy)propan-1-aminium iodide]: the MIC with S. aureus and with A. baumannii was 3 to 30 µg/mL each time.

In the case of `CCCCCCCCOc1ccccc1C(=O)Nc1ccc(C(=O)OCCCC[N+](C)(C)C)cc1.[I-]` [Compound 46, N,N,N-Trimethyl-4-((4-(2-(octyloxy)benzamido)benzoyl)oxy)butan-1-aminium iodide], the MIC with S. aureus is 3 to 30 µg/mL; with A. baumannii, greater than 30 µg/mL.

Consider `CCCCCCCCOc1ccccc1C(=O)Nc1ccc(C(=O)OCC[N+](CC)(CC)CCC(C)(C)C)cc1.[Br-]` [Compound 47, N,N-Diethyl-3,3-dimethyl-N-(2-((4-(2-(octyloxy)benzamido)benzoyl)oxy)ethyl)-butan-1-aminium bromide], for which the MIC was less than 3 µg/mL in the assay with S. aureus and 3 to 30 µg/mL in the assay with A. baumannii.

`CCCCCCCCCC[N+](CC)(CC)CCOC(=O)c1ccc(NC(=O)c2ccccc2OCCCCCCCC)cc1.[Br-]` [Compound 48, N,N-Diethyl-N-(2-((4-(2-(octyloxy)benzamido)benzoyl)oxy)ethyl)decan-1-aminium bromide]: the MIC in the assay on S. aureus is less than 3 µg/mL; in the assay on A. baumannii, greater than 30 µg/mL.

`CCCCCCCCCCC[N+](CC)(CC)CCOC(=O)c1ccc(NC(=O)c2ccccc2OCCCCCCCC)cc1.[Br-]` [Compound 49, N,N-Diethyl-N-(2-((4-(2-(octyloxy)benzamido)benzoyl)oxy)ethyl)undecan-1-aminium bromide]: the MIC in the assay with S. aureus was less than 3 µg/mL; in the assay with A. baumannii, greater than 30 µg/mL.

As for `CCCCCCCCOc1ccccc1C(=O)Nc1ccc(C(=O)OCC[N+](CC)(CC)Cc2cccc(OC)c2)cc1.[Br-]` [Compound 50, N,N-Diethyl-N-(3-methoxybenzyl)-2-((4-(2-(octyloxy)benzamido)benzoyl)oxy)-ethan-1-aminium bromide], the MIC in the assay with S. aureus was less than 3 µg/mL; in the assay with A. baumannii it was 3 to 30 µg/mL.

As to `CCCCCCCCOc1ccccc1C(=O)Nc1ccc(C(=O)OCC[N+](CC)(CC)Cc2ccc(C(=O)OC)cc2)cc1.[Br-]` [Compound 51, N,N-Diethyl-N-(4-(methoxycarbonyl)benzyl)-2-((4-(2-(octyloxy)benzamido)-benzoyl)oxy)ethan-1-aminium bromide], the MIC in the assay with S. aureus was less than 3 µg/mL; in the assay with A. baumannii, greater than 30 µg/mL.

Turning to `CCCCCCCCOc1ccccc1C(=O)Nc1ccc(C(=O)OCC[N+]2(C)CCCC2)cc1.[Br-]` [Compound 52, 1-Methyl-1-(2-((4-(2-(octyloxy)benzamido)benzoyl)oxy)ethyl)pyrrolidin-1-ium bromide], the MIC in the assay on S. aureus was 3 to 30 µg/mL; with A. baumannii it was greater than 30 µg/mL.

Consider `CCCCCCCCOc1ccccc1C(=O)Nc1ccc(C(=O)OC2CC[N+](C)(CC)CC2)cc1.[Br-]` (stereo not shown) [Compound 53, 1-Ethyl-1-methyl-4-((4-(2-(octyloxy)benzamido)benzoyl)oxy)piperidin-1-ium bromide], for which the MIC is 3 to 30 µg/mL in the assay on S. aureus and greater than 30 µg/mL in the assay with A. baumannii.

`CCCCCCCCOc1ccccc1C(=O)Nc1ccc(C(=O)N2CC[N+](C)(CC)CC2)cc1.[Br-]` [Compound 54, 1-Ethyl-1-methyl-4-(4-(2-(octyloxy)benzamido)benzoyl)piperazin-1-ium bromide]: the MIC in the assay on S. aureus and in the assay with A. baumannii was greater than 30 µg/mL each time.

For the compound `CCCCCCCCOc1ccccc1C(=O)Nc1ccc(C(=O)N(C)CC[N+](C)(CC)CC)cc1.[Br-]` [Compound 55, N,N-Diethyl-N-methyl-2-(N-methyl-4-(2-(octyloxy)benzamido)benzamido)ethan-1-aminium bromide], the MIC with S. aureus and with A. baumannii was greater than 30 µg/mL in each case.

As to `CCCCCCCCOc1ccccc1C(=O)Nc1ccc(C(=O)OCC[N+]2(CCC)CCCC2)cc1.[Br-]` [Compound 56, 1-(2-((4-(2-(Octyloxy)benzamido)benzoyl)oxy)ethyl)-1-propylpyrrolidin-1-ium bromide], the MIC with S. aureus was less than 3 µg/mL; with A. baumannii, 3 to 30 µg/mL.

Regarding `CCCCCCCCOc1ccccc1C(=O)Nc1ccc(C(=O)OC2CC[N+](CC)(CCC)CC2)cc1.[Br-]` (stereo not shown) [Compound 57, 1-Ethyl-4-((4-(2-(octyloxy)benzamido)benzoyl)oxy)-1-propylpiperidin-1-ium bromide], the MIC in the assay with S. aureus and in the assay on A. baumannii was 3 to 30 µg/mL throughout.

For `CCCCCCCCOc1ccccc1C(=O)Nc1ccc(C(=O)N(C)CC[N+](CC)(CC)CCC)cc1.[Br-]` [Compound 59, N,N-Diethyl-N-(2-(N-methyl-4-(2-(octyloxy)benzamido)benzamido)ethyl)propan-1-aminium bromide], the values for the MIC in the assay with S. aureus and in the assay on A. baumannii were 3 to 30 µg/mL and greater than 30 µg/mL, respectively.

Take `CCCCCCCCOc1ccccc1C(=O)Nc1ccc(C(=O)OCC[N+](CC)(CC)CC2CC2)cc1.[Br-]` [Compound 60, N-(Cyclopropylmethyl)-N,N-diethyl-2-((4-(2-(octyloxy)benzamido)benzoyl)oxy)-ethan-1-aminium bromide]: the MIC in the assay on S. aureus and with A. baumannii was 3 to 30 µg/mL each time.

Take `CCCCCCCCOc1ccccc1C(=O)Nc1ccc(C(=O)OCC[N+](CC)(CC)CC2CCCC2)cc1.[Br-]` [Compound 61, N-(Cyclopentylmethyl)-N,N-diethyl-2-((4-(2-(octyloxy)benzamido)benzoyl)oxy)-ethan-1-aminium bromide]: the MIC in the assay with S. aureus was less than 3 µg/mL; in the assay with A. baumannii, 3 to 30 µg/mL.

In the case of `CCCCCCCCOc1ccccc1C(=O)Nc1ccc(C(=O)OCC[N+](CC)(CC)CC2CCCCC2)cc1.[Br-]` [Compound 62, N-(Cyclohexylmethyl)-N,N-diethyl-2-((4-(2-(octyloxy)benzamido)benzoyl)oxy)-ethan-1-aminium bromide], the MIC in the assay with S. aureus is less than 3 µg/mL; in the assay with A. baumannii, 3 to 30 µg/mL.

As to `CCCCCCCCOc1ccccc1C(=O)Nc1ccc(C(=O)OCC[N+](CC)(CC)CCC(C)C)cc1.[Br-]` [Compound 63, N,N-Diethyl-3-methyl-N-(2-((4-(2-(octyloxy)benzamido)benzoyl)oxy)ethyl)butan-1-aminium bromide], the results for the MIC with S. aureus and in the assay with A. baumannii were less than 3 µg/mL and 3 to 30 µg/mL, respectively.

Consider `CCCCCOc1ccccc1C(=O)Nc1ccc(C(=O)OCC[N+](CC)(CC)CCC)cc1.[Br-]` [Compound 64, N,N-Diethyl-N-(2-((4-(2-(pentyloxy)benzamido)benzoyl)oxy)ethyl)propan-1-aminium bromide], for which the MIC with S. aureus is 3 to 30 µg/mL; in the assay with A. baumannii it was greater than 30 µg/mL.

Consider `CCCCCOc1ccccc1C(=O)Nc1ccc(C(=O)OCC[N+](CC)(CC)CCCCC)cc1.[Br-]` [Compound 65, N,N-Diethyl-N-(2-((4-(2-(pentyloxy)benzamido)benzoyl)oxy)ethyl)pentan-1-aminium bromide], for which the MIC in the assay with S. aureus was 3 to 30 µg/mL; with A. baumannii, greater than 30 µg/mL.
